Laboratory results from patent US10556900B2, “TrkA kinase inhibitors, compositions and methods thereof” (Merck Sharp & Dohme Corp., priority 2015, dated 2020).

Target: human TrkA receptor (Homo sapiens (Human), UniProt P04629)
Assay: TrkA functional activity, DiscoverX PathHunter assay (NGF-stimulated U2OS cells)
Format: cell-based
Conditions: U2OS cells expressing human TrkA-Prolink, Shc1-EA and p75NTR; compound 1 h, then NGF (~80% of maximal response) 3 h; luminescence
Experimental: TrkA functional activity was measured using a DiscoverX PathHunter assay. In this assay, U2OS cells express the human TrkA receptor as a fusion with the weakly complementing fragment of B-galactosidase, which DiscoverX calls “Prolink (PK)”; additionally, Shc1 is fused with a larger fragment, which is called “Enzyme Acceptor (EA)”. Activation of the TrkA receptor, upon NGF addition, results in the kinase domain being phosphorylated, resulting in subsequent recruitment of Shc1-EA protein. That recruitment results in an active B-galactosidase enzyme that is detected by addition of a chemiluminescent substrate. The human p75^NTR protein was also expressed as a co-receptor for NGF.
All reagents were purchased from DiscoverX, except for the receptor agonists (NGF, BDNF, NT3) which were purchased from Peprotech. Cells were expanded and frozen into cryovials, and stored in the vapor phase of liquid nitrogen, and thawed immediately before use. Thawed cells were added to a 384-well plate at 7500 cells/well, and allowed to incubate overnight. Compound at various concentrations was added the following morning and allowed to incubate on cells for 1 h. Then, NGF was added at a concentration sufficient to elicit ˜80% of a maximal response and allowed to incubate for 3 h at ambient temperature. DiscoverX PathHunter detection reagent was then added and the plate was further incubated for 1 h in the dark. The plate was then read via luminescence on the Perkin Elmer Envision.

Sequence of human TrkA receptor (P04629 33-796): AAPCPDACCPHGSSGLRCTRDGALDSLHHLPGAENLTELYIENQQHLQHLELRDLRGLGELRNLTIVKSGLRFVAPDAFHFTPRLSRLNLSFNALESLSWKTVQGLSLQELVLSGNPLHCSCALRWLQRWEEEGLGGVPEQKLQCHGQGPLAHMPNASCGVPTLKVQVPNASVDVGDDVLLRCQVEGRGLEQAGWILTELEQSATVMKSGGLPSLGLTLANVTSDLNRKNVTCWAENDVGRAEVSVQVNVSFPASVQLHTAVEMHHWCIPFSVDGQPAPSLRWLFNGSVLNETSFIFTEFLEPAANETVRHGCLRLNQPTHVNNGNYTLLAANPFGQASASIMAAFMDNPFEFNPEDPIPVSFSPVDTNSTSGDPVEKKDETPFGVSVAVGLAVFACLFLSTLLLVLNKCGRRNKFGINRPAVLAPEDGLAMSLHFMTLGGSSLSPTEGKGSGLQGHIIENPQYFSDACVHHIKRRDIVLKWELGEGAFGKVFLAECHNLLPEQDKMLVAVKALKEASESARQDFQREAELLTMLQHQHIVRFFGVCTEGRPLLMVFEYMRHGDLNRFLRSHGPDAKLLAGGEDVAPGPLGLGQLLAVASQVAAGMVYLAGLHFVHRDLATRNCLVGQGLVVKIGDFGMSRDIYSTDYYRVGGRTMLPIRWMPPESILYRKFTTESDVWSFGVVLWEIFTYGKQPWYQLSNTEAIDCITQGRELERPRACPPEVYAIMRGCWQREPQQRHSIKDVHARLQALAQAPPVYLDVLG

Row | IC50 [nM] | SMILES
1 | 96 | CC(C)(O)c1cc2cc(-c3ccccc3)c(NC(=O)c3cc(-c4ncccn4)c(C(F)(F)F)cc3F)cc2[nH]1 [Compound 44, 2-Fluoro-N-(2-(2-hydroxypropan-2-yl)-5-phenyl-1H-indol-6-yl)-5-(pyrimidin-2-yl)-4-(trifluoromethyl)benzamide]
2 | 2 | [2H]C(C)(O)c1cnc2c(NC(=O)c3cc(-c4ncccn4)c(C(F)(F)F)cc3F)c(-c3ccccc3)ccn12 (single isomer, unassigned) [Compound 75, (R and S)-2-Fluoro-N-(3-(1-hydroxyethyl-1-d)-7-phenylimidazo[1,2-a]pyridin-8-yl)-5-(pyrimidin-2-yl)-4-(trifluoromethyl)benzamide]
3 | 29 | CC(O)c1cnc2c(NC(=O)c3cc(-c4ncccn4)c(C(F)(F)F)cc3F)c(-c3ccc(F)cc3)ccn12 (single isomer, unassigned) [Compound 53, (R) or (S)-2-fluoro-N-[7-(4-fluorophenyl)-3-(1-hydroxyethyl)imidazo[1,2-a]pyridin-8-yl]-5-pyrimidin-2-yl-4-(trifluoromethyl)benzamide]
4 | 1.2 | Cn1ccc(-c2cc(C(=O)Nc3c(-c4ccccc4)ncn4c(CO)cnc34)c(F)cc2C(F)(F)F)n1 [Compound 70, 2-Fluoro-N-(3-(hydroxymethyl)-7-phenylimidazo[1,2-c]pyrimidin-8-yl)-5-(1-methyl-1H-pyrazol-3-yl)-4-(trifluoromethyl)benzamide]
5 | 4.4 | Cn1ccc(-c2cc(C(=O)Nc3cn4c(CO)ncc4cc3-c3ccccc3)c(F)cc2C(F)(F)F)n1 [Compound 65, 2-Fluoro-N-(3-(hydroxymethyl)-7-phenylimidazo[1,5-a]pyridin-6-yl)-5-(1-methyl-1H-pyrazol-3-yl)-4-(trifluoromethyl)benzamide]
6 | 56 | Cn1ccc(-c2cc(C(=O)Nc3c(-c4ccccc4)ccn4c(C(N)=O)cnc34)sc2C(F)(F)F)n1 [Compound 67, 8-(4-(1-Methyl-1H-pyrazol-3-yl)-5-(trifluoromethyl)thiophene-2-carboxamido)-7-phenylimidazo[1,2-a]pyridine-3-carboxamide]
7 | 2.9 | CC(O)c1n[nH]c2c(NC(=O)c3cc(-c4ncccn4)c(C(F)(F)F)cc3F)c(-c3ccccc3)ccc12 (racemic) [Compound 46, (R) and (S)-2-Fluoro-N-(3-(1-hydroxyethyl)-6-phenyl-1H-indazol-7-yl)-5-(pyrimidin-2-yl)-4-(trifluoromethyl)benzamide]
8 | 2 | CC(O)c1n[nH]c2c(NC(=O)c3ccc(C(F)(F)F)c(-c4ccn(C)n4)c3)c(-c3ccccc3)ccc12 (single isomer, unassigned) [Compound 49, (R) or (S)-N-[3-(1-hydroxyethyl)-6-phenyl-1H-indazol-7-yl]-3-(1-methyl-1H-pyrazol-3-yl)-4-(trifluoromethyl)benzamide]
9 | 5 | CC(=O)c1c[nH]c2c(NC(=O)c3ccc(C(F)(F)F)c(-c4ccn(C)n4)c3)c(-c3ccccc3)ccc12 [Compound 43, N-(3-Acetyl-6-phenyl-1H-indol-7-yl)-3-(1-methyl-1H-pyrazol-3-yl)-4-(trifluoromethyl)benzamide]

Continued, molecule first:

Row | SMILES | IC50 [nM]
10 | O=C(Nc1c(-c2ccccc2)ccc2c(CO)cnn12)c1cc(-c2ncccn2)c(C(F)(F)F)cc1F [Compound 41, 2-fluoro-N-[3-(hydroxymethyl)-6-phenylpyrazolo[1,5-a]pyridin-7-yl]-5-pyrimidin-2-yl-4-(trifluoromethyl)benzamide] | 2.1
11 | Cn1ccc(-c2cc(C(=O)Nc3c(-c4ccccc4)ccc4cc(C(C)(C)O)[nH]c34)ccc2C(F)(F)F)n1 [Compound 42, N-(2-(2-Hydroxypropan-2-yl)-6-phenyl-1H-indol-7-yl)-3-(1-methyl-1H-pyrazol-3-yl)-4-(trifluoromethyl)benzamide] | 0.66
12 | CC(O)c1cnc2c(NC(=O)c3cc(-c4ncccn4)c(C(F)(F)F)cc3F)c(-c3ccccc3)ccn12 (single isomer, unassigned) [Compound 10, (R) or (S)-2-Fluoro-N-(3-(1-hydroxyethyl)-7-phenylimidazo[1,2-a]pyridin-8-yl)-5-(pyrimidin-2-yl)-4-(trifluoromethyl)benzamide] | 1.1
13 | [2H]C([2H])(O)c1cnc2c(NC(=O)c3cc(-c4ncccn4)c(C(F)(F)F)cc3F)c(-c3ccccc3)ccn12 [Compound 35, 2-Fluoro-N-(3-(hydroxymethyl-d2)-7-phenylimidazo[r 12-a]pyridin-8-yl)-5-(pyrimidin-2-yl)-4-(trifluoromethyl)benzamide] | 4.4
14 | Cn1ccc(-c2cc(C(=O)Nc3c(-c4ccccc4)ccn4c(C(C)(C)O)cnc34)ccc2C(F)(F)F)n1 [Compound 32, N-[3-(1-hydroxy-1-methylethyl)-7-phenylimidazo[1,2-a]pyridin-8-yl]-3-(1-methyl-1H-pyrazol-3-yl)-4-(trifluoromethyl)benzamide] | 6.2
15 | CC(O)c1cnc2c(NC(=O)c3cc(-c4cc[nH]n4)c(C(F)(F)F)cc3F)c(-c3ccccc3)ccn12 (single isomer, unassigned) [Compound 28, (R) or (S)-2-fluoro-N-[3-(1-hydroxyethyl)-7-phenylimidazo[1,2-a]pyridin-8-yl]-5-(1H-pyrazol-3-yl)-4-(trifluoromethyl)benzamide] | 1.8
16 | Cn1ccc(-c2cc(C(=O)Nc3c(-c4ccccc4)ncn4cnnc34)ccc2C(F)(F)F)n1 [Compound 33, 3-(1-methyl-1H-pyrazol-3-yl)-N-(7-phenyl[1,2,4]triazolo[4,3-c]pyrimidin-8-yl)-4-(trifluoromethyl)benzamide] | 6.3
17 | Cn1ccc(-c2cc(C(=O)Nc3c(-c4ccccc4)ccn4c(CO)cnc34)ccc2C(F)(F)F)n1 [Compound 13, N-[3-(hydroxymethyl)-7-phenylimidazo[1,2-a]pyridin-8-yl]-3-(1-methyl-1H-pyrazol-3-yl)-4-(trifluoromethyl)benzamide] | 2.4
18 | CC(O)c1cnc2c(NC(=O)c3cc(-c4ccn(C)n4)c(C(F)(F)F)cc3F)c(-c3ccccc3)ccn12 (single isomer, unassigned) [Compound 25, (R) or (S)-2-fluoro-N-[3-(1-hydroxyethyl)-7-phenylimidazo[1,2-a]pyridin-8-yl]-5-(1-methyl-1H-pyrazol-3-yl)-4-(trifluoromethyl)benzamide] | 0.81
19 | Cn1ccc(-c2cc(C(=O)Nc3c(-c4ccccc4)ccc4c(C(C)(C)O)cnn34)c(F)cc2C(F)(F)F)n1 [Compound 36, 2-Fluoro-N-(3-(2-hydroxypropan-2-yl)-6-phenylpyrazolo[1,5-a]pyridin-7-yl)-5-(1-methyl-1H-pyrazol-3-yl)-4-(trifluoromethyl)benzamide] | 0.4
20 | Cn1ccc(-c2cc(C(=O)Nc3c(-c4ccccc4)ccn4c(C(N)=O)cnc34)c(F)cc2C(F)(F)F)n1 [Compound 22, 8-({[2-fluoro-5-(1-methyl-1H-pyrazol-3-yl)-4-(trifluoromethyl)phenyl]carbonyl}amino)-7-phenylimidazo[1,2-a]pyridine-3-carboxamide] | 0.51
